Measurements taken from US8481537B2, “Caspase inhibitors based of pyridazinone scaffold” (LG Life Sciences Ltd., priority 2006, dated 2013).

How the values were obtained:
Caspase-8 = target: T1, Caspase-8 (Homo sapiens, UniProt Q14790); experiment: Caspase inhibitory effect, fluorescent substrate AcDEVD-AFC; format: biochemical; settings: pH 7.5; 2.1 nM caspase-8, 50 μM AcDEVD-AFC, 25° C., pH 7.50; read-out: Caspase-8 Kobs/[I] (converted)
T1 construct: p10 and p20 subunits (Thornberry, N. A. et al, Nature, 1992, 356, 768) were expressed in E. coli; made in house; host or cells: E. coli
T1 sequence (Q14790 217-374 limits assumed, species assumed): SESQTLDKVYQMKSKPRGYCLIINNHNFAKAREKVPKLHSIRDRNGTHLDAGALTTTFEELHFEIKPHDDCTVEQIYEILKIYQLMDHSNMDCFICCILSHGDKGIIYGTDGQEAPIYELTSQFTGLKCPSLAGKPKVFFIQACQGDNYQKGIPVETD
T1 sequence (Q14790 385-479 limits assumed, species assumed): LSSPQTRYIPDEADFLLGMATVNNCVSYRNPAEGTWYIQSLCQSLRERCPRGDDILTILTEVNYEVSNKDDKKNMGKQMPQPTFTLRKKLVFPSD
Experimental: Caspase-1 and caspase-8 known as cysteine proteases in the form of α2β2 were expressed, purified, and activated by modifying a method known in Thornberry, N. A. et al, Nature, 1992, 356, 768. Thornberry, N. A. Methods in Enzymology, 1994, 244, 615. Walker, N. P. C. et al. Cell, 1994, 78, 343, and caspase-9 was also purified by a similar method, and the inhibitory activity against them was tested. Briefly describing, p10 and p20 subunits (Thornberry, N. A. et al, Nature, 1992, 356, 768) were expressed in E. coli and purified by nickel column and anionic exchange chromatography to give caspase-1, caspase-8 and caspase-9. The fluorescent substrates AcYVAD-AFC for thus obtained caspase-1, AcDEVD-AFC for caspase-8, and AcLEHD-AFC for caspase-9, were used for determining specific activity of the synthesized inhibitors. The enzyme reaction was carried out at 25° C. with various concentrations of the inhibitors in a buffer solution containing 50 mM HEPES(pH 7.50), 10% (w/v) sucrose, 0.1% (w/v) CHAPS, 100 mM NaCl, 1 mM EDTA, and 10 mM DTT in the presence of 50 μM AcYVAD-AFC for 10 nM caspase-1, 50 μM AcDEVD-AFC for 2.1 nM caspase-8, and 150 μM AcLEHD-AFC for 200 nM caspase-9. The inhibitory constants Ki and Kobs of the inhibitors were determined by measuring the reaction velocity with the time lapse using a fluorescent spectrometer and by obtaining the initial rate constant. Ki was calculated from the Lineweaver Burk Plot, and Kobs from the following Equation 1. Kobs=−ln(1−At/Aoo)/t [Equation 1]
At means cleavage rate (%) at time t, and
Aoo means the maximum cleavage rate (%).
Spectra MAX GeminiXS Fluorescent Spectrometer of Molecular Device Co. was used at the excitation wavelength of 405 nm and the emission wavelength of 505 nm.

[1] = tested on: Jurkat cell (ATCC TIB-152); experiment: Jurkat cell apoptosis induced by Fas antibody, WST-1 method; format: cell-based; settings: Homo sapiens, amount of alive cells by WST-1
Experimental: The […] inhibitory activity of the inhibitors was determined by subjecting Jurkat cell (ATCC TIB-152) to apoptosis using Fas antibody (Upstate Biotech 05-201) and by detecting the color change according to the WST-1 method known in Francoeur A. M. and Assalian A. (1996) Biochemica 3, 19-25 to observe the amount of alive Jurkat cells when the cells were treated by the inhibitor. Spectra MAX 340 Spectrometer of Molecular Device Co. was used at the absorbance wavelength of 440 nm.

`CC[C@@H](C(=O)N[C@@H](CC(=O)O)C(=O)COc1c(F)c(F)cc(F)c1F)c1ccnn(Cc2ccccc2C(C)(C)C)c1=O` [Example 24-1, (S)-3-{(R)-2-[2-(2-tert-Butyl-benzyl)-3-oxo-2,3-dihydro-pyridazin-4-yl]-butyrylamino}-4-oxo-5-(2,3,5,6-tetrafluoro-phenoxy)-pentanoic acid] showed a kinact/KI (Caspase-8) of 63300 M⁻¹ s⁻¹ and an IC50 [1] of 12 nM.
For `CC[C@H](C(=O)N[C@@H](CC(=O)O)C(=O)COc1c(F)c(F)cc(F)c1F)c1ccnn(Cc2ccccc2C(C)(C)C)c1=O` [Example 24-2, (S)-3-{(S)-2-[2-(2-tert-Butyl-benzyl)-3-oxo-2,3-dihydro-pyridazin-4-yl]-butyrylamino}-4-oxo-5-(2,3,5,6-tetrafluoro-phenoxy)-pentanoic acid], the kinact/KI (Caspase-8) was 1830 M⁻¹ s⁻¹ and the IC50 [1] was 4150 nM.
For `CC[C@@H](C(=O)N[C@@H](CC(=O)O)C(=O)COc1c(F)c(F)cc(F)c1F)c1ccnn(Cc2cccc(C(C)(C)C)c2)c1=O` [Example 25-1, (S)-3-{(R)-2-[2-(3-tert-Butyl-benzyl)-3-oxo-2,3-dihydro-pyridazin-4-yl]-butyrylamino}-4-oxo-5-(2,3,5,6-tetrafluoro-phenoxy)-pentanoic acid], the kinact/KI (Caspase-8) was 26700 M⁻¹ s⁻¹ and the IC50 [1] was 31 nM.
Work on `CC[C@H](C(=O)N[C@@H](CC(=O)O)C(=O)COc1c(F)c(F)cc(F)c1F)c1ccnn(Cc2cccc(C(C)(C)C)c2)c1=O` [Example 25-2, (S)-3-{(S)-2-[2-(3-tert-Butyl-benzyl)-3-oxo-2,3-dihydro-pyridazin-4-yl]-butyrylamino}-4-oxo-5-(2,3,5,6-tetrafluoro-phenoxy)-pentanoic acid] yielded a kinact/KI (Caspase-8) of 900 M⁻¹ s⁻¹ and an IC50 [1] of 1940 nM.
Work on `CC[C@@H](C(=O)N[C@@H](CC(=O)O)C(=O)COc1c(F)ccc(F)c1F)c1ccnn(Cc2ccccc2C(C)(C)C)c1=O` [Example 26-1, (S)-3-{(R)-2-[2-(2-tert-Butyl-benzyl)-3-oxo-2,3-dihydro-pyridazin-4-yl]-butyrylamino}-4-oxo-5-(2,3,6-trifluoro-phenoxy)-pentanoic acid] yielded a kinact/KI (Caspase-8) of 28300 M⁻¹ s⁻¹ and an IC50 [1] of 45 nM.
For `CC[C@@H](C(=O)N[C@@H](CC(=O)O)C(=O)COc1c(F)cccc1F)c1ccnn(Cc2ccccc2C(C)(C)C)c1=O` [Example 27-1, (S)-3-{(R)-2-[2-(2-tert-Butyl-benzyl)-3-oxo-2,3-dihydro-pyridazin-4-yl]-butyrylamino}-5-(2,6-difluoro-phenoxy)-4-oxo-pentanoic acid], the kinact/KI (Caspase-8) was 11700 M⁻¹ s⁻¹ and the IC50 [1] was 90 nM.
Molecule `CCC(C(=O)N[C@@H](CC(=O)O)C(=O)COP(=O)(c1ccccc1)c1ccccc1)c1ccnn(Cc2ccccc2C(C)(C)C)c1=O` (stereo partly drawn) [Example 28, (S)-3-{2-[2-(2-tert-Butyl-benzyl)-3-oxo-2,3-dihydro-pyridazin-4-yl]-butyrylamino}-5-(diphenyl-phosphinoyloxy)-4-oxo-pentanoic acid] has a kinact/KI (Caspase-8) of 56700 M⁻¹ s⁻¹ and an IC50 [1] of 365 nM.
